Drawing on PubChem BioAssay (NCI), this text covers TGI and GI50 for 17 compounds.

Structures are written as SMILES.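 Briefly, cells in 96-well plates were exposed to five compound concentrations for 48 h, and endpoints were estimated by linear interpolation. At the GI50, growth is halved. Definition used: TGI = concentration required for complete inhibition of growth.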 Where only a bound is given, the exact number is not on record here.

Common to all, as to assay: NCI-60 cell line screen, 48 h
Assay [1] has as its system HL-60(TB) leukemia.
For assay [2], the system named is IGROV1 ovarian.
Assay [3] concerns LOX IMVI melanoma.
Assay [4] concerns MALME-3M melanoma.
The subject of assay [5] is NCI-H522 lung.
Assay [6] relates to OVCAR-3 ovarian.
Assay [7] has as its system SNB-19 CNS.
The test system of assay [8] is SNB-75 CNS.
The test system of assay [9] is SW-620 colon.
Assay [10] deals with U251 CNS.

`CCCC(N)C(=O)c1ccccc1` (stereo not drawn): the TGI in [1], in assay [2], in [3], in assay [4], in assay [5] and in [6] was greater than 100 µM in each case. Also, the TGI in assay [7], in [8], in assay [9] and in assay [10] was greater than 100 µM throughout.
In the case of `CCOc1ccc(/C(C=O)=C(\Cl)c2ccc(OC)c(OC)c2)cc1`, the TGI in assay [1], in assay [2], in assay [3], in assay [4], in [5] and in assay [6] was greater than 100 µM in each case. Also, the TGI in [7], in [9] and in assay [10] was greater than 100 µM in each case.
Turning to `O=C(O)C1CCC(=O)N1S(=O)(=O)c1ccccc1` (stereo not drawn), the TGI in [1], in assay [2], in [3], in [4], in assay [5] and in assay [6] was greater than 100 µM in each case. The TGI in assay [7], in [8], in assay [9] and in assay [10] was greater than 100 µM throughout.
For `C=C1C(=O)O[C@@H]2[C@H]1CCC(C)=C1C=CC(=O)[C@]12C`, the TGI in assay [1] was determined as 14 µM; in [2] it was 46.7 µM; in assay [5], 6.96 µM; in assay [6], 31 µM; in assay [7], 71.8 µM; in [8], 34.4 µM. Further, the TGI in assay [9] amounted to 18.4 µM; in assay [10] it was 54 µM.
For the compound `CC(=O)C=NCC(=O)O`, the TGI in assay [1], in [2], in [3], in assay [4], in assay [5] and in assay [6] was greater than 100 µM each time. Moreover, the TGI in assay [7], in assay [8], in assay [9] and in assay [10] was greater than 100 µM throughout.
Regarding `c1ccc(N=c2nc(N3CCOCC3)ss2)cc1`, the TGI in [1] is 47.3 µM; in [2], 52.7 µM; in [3], 30.1 µM; in assay [4] it was 28.8 µM; in assay [5], 25.3 µM; in assay [7], greater than 100 µM. The TGI is 39 µM in assay [8], 21.8 µM in [9] and 28.6 µM in assay [10].
Consider `N#CC(Nc1cccc(C(F)(F)F)c1)c1ccccc1C(F)(F)F` (stereo not drawn), for which the TGI in assay [1] amounted to 7.57 µM; in [2], 38.1 µM; in [3] it was 14.5 µM; in assay [4], 18 µM; in [5], 17.1 µM; in [6] it was 16.3 µM. The TGI in assay [7] amounted to 31.9 µM; in assay [8], 32.2 µM; in [9], 11 µM; in [10], 30.5 µM.
In the case of `COc1ccc(-c2nn(-c3cccc(NC(=O)Nc4ccccc4)c3)cc2-c2ccncc2)cc1Cl`, the GI50 in assay [1] is 2.52 µM; in [2], 2.73 µM; in assay [3], 3.25 µM; in assay [4], 1.89 µM; in [5], 2.5 µM; in assay [7], 2.83 µM. In addition, the GI50 in assay [8] was 1.33 µM; in assay [9], 2.51 µM; in assay [10], 1.99 µM. For the same compound, the TGI in assay [1] is 6.36 µM; in assay [2], 8.02 µM; in assay [3] it was 17 µM; in [4] it was 4.83 µM; in assay [5], 7.22 µM; in [7] it was greater than 100 µM. Also, the results for the TGI in assay [8], in assay [9] and in assay [10] were 2.79 µM, 7.36 µM and 4.91 µM, respectively.
With `NC1(C(=O)O)CCc2ccc(N(CCCl)CCCl)cc2C1` (stereo not drawn), the TGI in assay [1] is greater than 100 µM; in assay [2], greater than 100 µM; in [3], greater than 100 µM; in assay [4], 2.2 µM; in assay [5] it was 74.3 µM; in assay [6] it was greater than 100 µM. In addition, the TGI in [7], in [8], in assay [9] and in [10] was greater than 100 µM throughout.
`CCC(=O)NC(Nc1cccc(F)c1)(C(F)(F)F)C(F)(F)F`: the TGI in [1], in assay [2], in [3], in assay [5], in [6] and in assay [7] was greater than 100 µM each time. Also, the TGI in assay [8], in assay [9] and in [10] was greater than 100 µM in each case.
In the case of `Cc1cc2c(C(C)C)c(O)c(O)c(C=NCCO)c2c(O)c1-c1c(C)cc2c(C(C)C)c(O)c(O)c(C=NCCO)c2c1O`, the TGI in assay [1] was 4.97 µM; in assay [2] it was 6.38 µM; in assay [3], 3.11 µM; in [4], 9.36 µM; in assay [5], 4.78 µM; in [6], 5.79 µM. Also, the TGI in assay [7] was determined as 25.1 µM; in [8], 9.13 µM; in assay [9] it was 16.7 µM; in assay [10], 2.59 µM.
Regarding `O=C(Nc1ccc(Sc2ccc(N=Nc3c(O)c(S(=O)(=O)O)cc4cc(S(=O)(=O)O)ccc34)cc2)cc1)c1ccc(N=Nc2c(O)ccc3c(S(=O)(=O)O)cc(S(=O)(=O)O)cc23)cc1`, the TGI was 33.5 µM in assay [1]; greater than 100 µM in [2]; 34.8 µM in [3]; 72 µM in assay [4]; 40.2 µM in [5]; 92.5 µM in assay [6]. Besides, the TGI in assay [7], in assay [8], in assay [9] and in assay [10] was greater than 100 µM each time.
In the case of `CN1C[C@H]2[C@@H](C1=O)[C@H](c1ccccc1)ON2C`, the TGI in assay [2], in assay [3], in [5], in [6], in assay [7] and in assay [8] was greater than 100 µM in each case. The TGI in assay [9] and in [10] was greater than 100 µM in each case.
For `CC(=O)O[C@H]1C=CC(=O)C(C)CC1C` (stereo partly drawn), the TGI in assay [1], in [2], in [3], in assay [4], in assay [5] and in assay [6] was greater than 100 µM in each case. Also, the TGI in assay [7], in [8], in assay [9] and in assay [10] was greater than 100 µM each time.
On to `Clc1ccc(CNc2nc(Cl)c3[nH]cnc3n2)cc1Cl`, for which the TGI in assay [2] was greater than 100 µM; in [4] it was greater than 100 µM; in [5], 34.4 µM; in [6] it was greater than 100 µM; in assay [7], greater than 100 µM; in [8], greater than 100 µM. The same compound gave a TGI in assay [10] greater than 100 µM.
In the case of `O=C(Nc1c(C(=O)NC2CCCCC2)[nH]c(=O)[nH]c1=O)c1ccc(Cl)cc1`, the TGI in assay [1], in [2], in assay [3], in assay [4], in [5] and in assay [6] was greater than 100 µM throughout. Also, the values for the TGI in assay [8] and in assay [9] were 85.1 µM and greater than 100 µM, respectively.
For `Fc1ccc(-c2nn3c(-c4cc(C(F)(F)F)cc(C(F)(F)F)c4)nnc3s2)cc1`, the GI50 in assay [2] was 1.66 µM; in assay [5], 2.3 µM; in assay [6] it was 1.16 µM; in [7], 1.57 µM; in [8], 0.886 µM; in [9], greater than 50 µM. In addition, the TGI is greater than 50 µM in assay [2]; greater than 50 µM in assay [5]; 2.42 µM in assay [6]; greater than 50 µM in assay [7]; 2.36 µM in assay [8]; greater than 50 µM in assay [9].
